Data on 2 molecules can be found in patent publication US7582681B2, “Synergistic mixtures of 1,2-alkane diols” (Symrise GmbH & Co. KG, priority 2002, dated 2009).

Assay [1] deals with Pseudomonas aeruginosa ATCC 9027. The experiment in a line: Test for adequate preservation (European Pharmacopea), 1,2-diols and 1,2-diol mixtures in O/W emulsion. The assay is classed as cell-based. To be noted: 3% diol(s) in O/W emulsion. Here is the method: (§1) A test for adequate preservation was carried out in accordance with the European Pharmacopea. The test thus consists of the contamination of the formulation, if possible in its final ratio, with a prescribed inoculum of suitable microorganisms, storage of the inoculated formulation at a specific temperature, taking of samples from the vessel at specific intervals and determination of the number of microorganisms in the samples taken in this way. The preserving properties are adequate if, under the conditions of the test, there is a distinct reduction or optionally no increase in the germ count in the inoculated formulations after the prescribed times at the prescribed temperatures. Experimental details of the test procedure are described in the European Pharmacopea (ISBN 3-7692-2768-9; 2001 supplement to the 3rd Edition, page 421-422, chapter 5.1.3). The initial germ count (CFU/g; “0” value) was in the range of 240,000 to 300,000 in the various test series. For the tests for adequate preservation, (a) potentially synergistically active mixtures taken into account and (b), for comparison purposes, the corresponding unmixed 1,2-diols were incorporated in O/W emulsions. […] The variation in the total concentration of 1,2-diols or 1,2-diol mixtures in the O/W emulsions was compensated for by increasing or reducing the water content, so that otherwise identical formulations always comprised 100 parts by weight in total.

Assay [2] relates to Staphylococcus aureus ATCC 6538. Described as above. The class given is cell-based. Conditions: 3% diol(s) in O/W emulsion. The procedure:
as §1

Structures are written as SMILES.

As to `CCCCCCC(O)CO` (centres unmarked) [OC3, 1,2-octanediol], the “germ count Ps. aeruginosa” value is 290,000 CFU/ml in assay [1] (0′-count (initial germ count)); 0 CFU/ml in assay [1] (24 h); 0 CFU/ml in assay [1] (48 h); 0 CFU/ml in assay [1] (4 d); 0 CFU/ml in assay [1] (7 d); 0 CFU/ml in assay [1] (14 d). Further, in assay [1] (28 d), the “germ count Ps. aeruginosa” value is recorded as 0 CFU/ml. Further, the “germ count Staph. aureus” value in assay [2] (0′-count (initial germ count)) is recorded as 240,000 CFU/ml; in assay [2] (24 h), 0 CFU/ml; in assay [2] (48 h), 0 CFU/ml; in assay [2] (7 d), 0 CFU/ml; in assay [2] (14 d), 0 CFU/ml; in assay [2] (28 d), 0 CFU/ml.
Regarding `CCCCC(O)CO` (centres unmarked) [HE3, 1,2-hexanediol], the “germ count Ps. aeruginosa” value is listed as 290,000 CFU/ml in assay [1] (0′-count (initial germ count)); below 100 CFU/ml in assay [1] (24 h); below 100 CFU/ml in assay [1] (48 h); 0 CFU/ml in assay [1] (4 d); 0 CFU/ml in assay [1] (7 d); 0 CFU/ml in assay [1] (14 d). Besides, the “germ count Ps. aeruginosa” value in assay [1] (28 d) came to 0 CFU/ml. The “germ count Staph. aureus” value in assay [2] (0′-count (initial germ count)) is reported as 240,000 CFU/ml; in assay [2] (24 h) it was below 100 CFU/ml; in assay [2] (48 h), below 100 CFU/ml; in assay [2] (7 d) it was 0 CFU/ml; in assay [2] (14 d), 0 CFU/ml; in assay [2] (28 d), 0 CFU/ml.
